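How tested: cells in 96-well plates exposed to compound for 48 hours at five concentrations. At the TGI there is no net growth.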
Experiments:
Experiment in all cases: NCI tumour cell line growth inhibition, 48 h
[1] = tested on: M14 melanoma
[2] = tested on: XF 498 CNS
[3] = tested on: MOLT-4 leukemia
[4] = tested on: ACHN renal
[5] = tested on: DMS 273 small cell lung
[6] = tested on: K-562 leukemia
[7] = tested on: SF-295 CNS
[8] = tested on: OVCAR-3 ovarian
[9] = tested on: RPMI-8226 leukemia
[10] = tested on: DMS 114 small cell lung
[11] = tested on: KM20L2 colon
[12] = tested on: HOP-18 NSCLC
[13] = tested on: HOP-62 NSCLC
[14] = tested on: DLD-1 colon
[15] = tested on: CAKI-1 renal
[16] = tested on: EKVX NSCLC
[17] = tested on: CCRF-CEM leukemia
[18] = tested on: UACC-257 melanoma
[19] = tested on: SNB-75 CNS
[20] = tested on: HOP-92 NSCLC
[21] = tested on: UACC-62 melanoma
[22] = tested on: M19-MEL melanoma
[23] = tested on: TK-10 renal
[24] = tested on: SK-MEL-28 melanoma
[25] = tested on: SR leukemia
[26] = tested on: NCI-H460 lung
[27] = tested on: NCI-H23 lung
[28] = tested on: SNB-78 CNS
[29] = tested on: OVCAR-8 ovarian
[30] = tested on: NCI-H226 lung
[31] = tested on: OVCAR-5 ovarian
[32] = tested on: HCC-2998 colon
[33] = tested on: U251 CNS
[34] = tested on: LOX IMVI melanoma
[35] = tested on: SN12C renal
[36] = tested on: HCT-116 colon
[37] = tested on: LXFL 529 NSCLC
[38] = tested on: 786-0 renal
[39] = tested on: MALME-3M melanoma
[40] = tested on: SK-MEL-2 melanoma
[41] = tested on: SNB-19 CNS
[42] = tested on: SK-OV-3 ovarian
[43] = tested on: UO-31 renal
[44] = tested on: SK-MEL-5 melanoma
[45] = tested on: OVCAR-4 ovarian
[46] = tested on: NCI-H522 lung
[47] = tested on: A549 NSCLC
[48] = tested on: HCT-15 colon
[49] = tested on: IGROV1 ovarian
[50] = tested on: HL-60(TB) leukemia
[51] = tested on: SW-620 colon
[52] = tested on: KM12 colon
[53] = tested on: COLO 205 colon
[54] = tested on: RXF 393 renal
[55] = tested on: HT29 colon
[56] = tested on: A498 renal
[57] = tested on: SF-268 CNS
[58] = tested on: SF-539 CNS
[59] = tested on: RXF-631 renal
[60] = tested on: NCI/ADR-RES ovarian
[61] = tested on: PC-3 prostate
[62] = tested on: DU-145 prostate
[63] = tested on: MDA-MB-435
[64] = tested on: MDA-MB-231 breast
[65] = tested on: HS 578T breast
[66] = tested on: MDA-N
[67] = tested on: T-47D breast
[68] = tested on: BT-549 breast

C(/COc1cccnc1)=N\NC1=NCCN1 showed a TGI [1] greater than 100 µM, a TGI [2] greater than 100 µM and a TGI [3] greater than 100 µM. It also gave a TGI [4] greater than 100 µM, a TGI [5] greater than 100 µM and a TGI [6] greater than 100 µM. The TGI [7] was greater than 100 µM, the TGI [8] was greater than 100 µM and the TGI [9] was greater than 100 µM. For the same molecule, the TGI [10] was greater than 100 µM, the TGI [11] was greater than 100 µM and the TGI [12] was greater than 100 µM. For the same molecule, the TGI [13] was greater than 100 µM, the TGI [14] was greater than 100 µM and the TGI [15] was greater than 100 µM. It also gave a TGI [16] greater than 100 µM, a TGI [17] greater than 100 µM and a TGI [18] greater than 100 µM. For the same molecule, the TGI [19] was greater than 100 µM, the TGI [20] was greater than 100 µM and the TGI [21] was greater than 100 µM. For the same molecule, the TGI [22] was greater than 100 µM, the TGI [23] was greater than 100 µM and the TGI [24] was greater than 100 µM. The TGI [25] was greater than 100 µM, the TGI [26] was greater than 100 µM and the TGI [27] was greater than 100 µM. It also gave a TGI [28] greater than 100 µM, a TGI [29] greater than 100 µM and a TGI [30] greater than 100 µM. For the same molecule, the TGI [31] was greater than 100 µM, the TGI [32] was greater than 100 µM and the TGI [33] was greater than 100 µM. It also gave a TGI [34] greater than 100 µM, a TGI [35] greater than 100 µM and a TGI [36] greater than 100 µM. For the same molecule, the TGI [37] was greater than 100 µM, the TGI [38] was greater than 100 µM and the TGI [39] was greater than 100 µM. It also gave a TGI [40] greater than 100 µM, a TGI [41] greater than 100 µM and a TGI [42] greater than 100 µM. The TGI [43] was greater than 100 µM, the TGI [44] was greater than 100 µM and the TGI [45] was greater than 100 µM. The TGI [46] was greater than 100 µM, the TGI [47] was greater than 100 µM and the TGI [48] was greater than 100 µM. For the same molecule, the TGI [49] was greater than 100 µM, the TGI [50] was greater than 100 µM and the TGI [51] was greater than 100 µM. For the same molecule, the TGI [52] was greater than 100 µM, the TGI [53] was greater than 100 µM and the TGI [54] was greater than 100 µM. The TGI [55] was greater than 100 µM, the TGI [56] was greater than 100 µM and the TGI [57] was greater than 100 µM. The TGI [58] was greater than 100 µM.

With C=C1C(=O)C=C2C=C3C(=O)C(C)(C)C[C@]3(O)C12C (stereo partly drawn) the TGI [1] was 3.04 µM, the TGI [2] was 3.56 µM and the TGI [3] was 2.28 µM. It also gave a TGI [4] of 4.53 µM, a TGI [5] of 14 µM and a TGI [6] of 3.98 µM. The TGI [59] was 30.9 µM, the TGI [7] was 45.7 µM and the TGI [8] was 4.49 µM. It also gave a TGI [9] of 3.2 µM, a TGI [60] greater than 100 µM and a TGI [10] of 3.61 µM. The TGI [13] was 53.3 µM, the TGI [61] was 10.2 µM and the TGI [15] was 3.99 µM. The TGI [16] was 51.2 µM, the TGI [17] was 1.37 µM and the TGI [62] was 33.9 µM. It also gave a TGI [18] of 9.13 µM, a TGI [19] of 31.4 µM and a TGI [20] of 3.24 µM. It also gave a TGI [21] of 17.8 µM, a TGI [22] of 11.3 µM and a TGI [23] of 3.42 µM. The TGI [24] was 6.76 µM, the TGI [25] was 2.28 µM and the TGI [26] was 38.2 µM. It also gave a TGI [27] of 12.9 µM, a TGI [28] of 21 µM and a TGI [29] of 29.3 µM. It also gave a TGI [63] of 32.6 µM, a TGI [30] of 45.6 µM and a TGI [31] of 21.4 µM. For the same molecule, the TGI [32] was 34.4 µM, the TGI [33] was 34 µM and the TGI [64] was 7.59 µM. The TGI [34] was 11 µM, the TGI [35] was 23.9 µM and the TGI [36] was 9 µM. For the same molecule, the TGI [37] was 2.64 µM, the TGI [38] was 3.41 µM and the TGI [39] was 3.65 µM. It also gave a TGI [65] of 43.8 µM, a TGI [40] of 33.2 µM and a TGI [41] of 44.5 µM. It also gave a TGI [42] of 38.1 µM, a TGI [43] of 14 µM and a TGI [44] of 19 µM. The TGI [45] was 12.7 µM, the TGI [46] was 3.38 µM and the TGI [47] was 40.4 µM. It also gave a TGI [48] of 11.7 µM, a TGI [49] of 36.5 µM and a TGI [66] of 13.5 µM. The TGI [67] was 5.98 µM, the TGI [50] was 2.54 µM and the TGI [51] was 3.23 µM. For the same molecule, the TGI [52] was 32.1 µM, the TGI [53] was 3.53 µM and the TGI [54] was 3.33 µM. The TGI [55] was 11.1 µM, the TGI [68] was 3.05 µM and the TGI [56] was 23.2 µM. For the same molecule, the TGI [57] was 28.2 µM and the TGI [58] was greater than 57.5 µM.
